Experimental data taken from ChEMBL document CHEMBL4420070, “6-6 Fused Bicyclic Heteroaryl Compounds and their Use as LATS Inhibitors” (2018).
The source made the active and inactive calls. The calls are words filed in the database; no cut-off is given here.

What was measured:
[1] = target: T1, Serine/threonine-protein kinase LATS (Homo sapiens) (UniProt Q9NRM7+O95835); experiment: Inhibition of LATS in human limbal epithelial cells assessed as induction of limbal stem cell expansion by measuring expansion factor ratio at 10 uM measured after 2 weeks by p63alpha expression detection based immunohistochemistry relative to control; parameters: scale not given: the % may be the effect or the level left
T1 sequence (Q9NRM7 whole entry, looked up, one chain of several): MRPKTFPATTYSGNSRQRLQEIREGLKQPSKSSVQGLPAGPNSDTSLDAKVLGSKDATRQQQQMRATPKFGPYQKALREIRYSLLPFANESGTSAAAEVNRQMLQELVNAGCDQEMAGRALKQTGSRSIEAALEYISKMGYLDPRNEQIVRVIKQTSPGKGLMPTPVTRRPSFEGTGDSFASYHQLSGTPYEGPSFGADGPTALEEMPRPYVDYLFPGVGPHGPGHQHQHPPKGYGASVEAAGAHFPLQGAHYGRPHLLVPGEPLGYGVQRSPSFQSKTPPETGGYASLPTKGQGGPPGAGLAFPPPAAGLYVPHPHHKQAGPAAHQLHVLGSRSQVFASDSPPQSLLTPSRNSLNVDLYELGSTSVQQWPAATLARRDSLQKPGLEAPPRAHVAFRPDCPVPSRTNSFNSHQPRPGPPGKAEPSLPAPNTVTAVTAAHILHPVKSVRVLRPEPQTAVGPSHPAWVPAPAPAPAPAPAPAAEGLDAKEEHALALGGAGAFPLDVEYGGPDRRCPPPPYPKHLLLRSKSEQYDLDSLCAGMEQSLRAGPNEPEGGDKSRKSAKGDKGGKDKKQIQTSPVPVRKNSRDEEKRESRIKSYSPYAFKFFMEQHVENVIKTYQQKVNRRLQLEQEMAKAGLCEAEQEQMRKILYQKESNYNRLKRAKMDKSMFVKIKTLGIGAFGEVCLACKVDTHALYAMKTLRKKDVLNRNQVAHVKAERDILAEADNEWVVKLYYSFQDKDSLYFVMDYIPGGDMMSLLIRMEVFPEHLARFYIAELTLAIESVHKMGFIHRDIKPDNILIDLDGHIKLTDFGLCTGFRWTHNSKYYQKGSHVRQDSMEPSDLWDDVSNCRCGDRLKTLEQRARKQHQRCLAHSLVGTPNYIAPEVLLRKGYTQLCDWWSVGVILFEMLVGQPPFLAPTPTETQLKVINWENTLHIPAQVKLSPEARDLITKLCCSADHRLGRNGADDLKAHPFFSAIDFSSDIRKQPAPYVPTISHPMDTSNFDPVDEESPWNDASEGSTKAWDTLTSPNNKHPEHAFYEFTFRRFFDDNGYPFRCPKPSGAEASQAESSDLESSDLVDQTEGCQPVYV

[2] = target: T1, Serine/threonine-protein kinase LATS (Homo sapiens); experiment: Inhibition of LATS in human corneal endothelium cells assessed as induction of cell expansion by measuring cell density at 10 uM by Sytox orange dye based epifluorescence microscopy
[3] = Total drug level in cell pellets of human limbal stem cells by LC-MS analysis; format: ADME
[4] = Drug level in post wash cell pellets of human limbal stem cells by LC-MS analysis; format: ADME
[5] = Total drug level in cell pellets of human corneal endothelium cells by LC-MS analysis; format: ADME
[6] = Drug level in cell pellets of human corneal endothelium cells by LC-MS analysis; format: ADME
[7] = target: T2, Serine/threonine-protein kinase LATS1 (Homo sapiens, UniProt O95835); experiment: Inhibition of human LATS1 kinase domain (589 to 1130 amino acids) incubated for 30 mins by HTRF assay
T2 sequence (O95835 whole entry): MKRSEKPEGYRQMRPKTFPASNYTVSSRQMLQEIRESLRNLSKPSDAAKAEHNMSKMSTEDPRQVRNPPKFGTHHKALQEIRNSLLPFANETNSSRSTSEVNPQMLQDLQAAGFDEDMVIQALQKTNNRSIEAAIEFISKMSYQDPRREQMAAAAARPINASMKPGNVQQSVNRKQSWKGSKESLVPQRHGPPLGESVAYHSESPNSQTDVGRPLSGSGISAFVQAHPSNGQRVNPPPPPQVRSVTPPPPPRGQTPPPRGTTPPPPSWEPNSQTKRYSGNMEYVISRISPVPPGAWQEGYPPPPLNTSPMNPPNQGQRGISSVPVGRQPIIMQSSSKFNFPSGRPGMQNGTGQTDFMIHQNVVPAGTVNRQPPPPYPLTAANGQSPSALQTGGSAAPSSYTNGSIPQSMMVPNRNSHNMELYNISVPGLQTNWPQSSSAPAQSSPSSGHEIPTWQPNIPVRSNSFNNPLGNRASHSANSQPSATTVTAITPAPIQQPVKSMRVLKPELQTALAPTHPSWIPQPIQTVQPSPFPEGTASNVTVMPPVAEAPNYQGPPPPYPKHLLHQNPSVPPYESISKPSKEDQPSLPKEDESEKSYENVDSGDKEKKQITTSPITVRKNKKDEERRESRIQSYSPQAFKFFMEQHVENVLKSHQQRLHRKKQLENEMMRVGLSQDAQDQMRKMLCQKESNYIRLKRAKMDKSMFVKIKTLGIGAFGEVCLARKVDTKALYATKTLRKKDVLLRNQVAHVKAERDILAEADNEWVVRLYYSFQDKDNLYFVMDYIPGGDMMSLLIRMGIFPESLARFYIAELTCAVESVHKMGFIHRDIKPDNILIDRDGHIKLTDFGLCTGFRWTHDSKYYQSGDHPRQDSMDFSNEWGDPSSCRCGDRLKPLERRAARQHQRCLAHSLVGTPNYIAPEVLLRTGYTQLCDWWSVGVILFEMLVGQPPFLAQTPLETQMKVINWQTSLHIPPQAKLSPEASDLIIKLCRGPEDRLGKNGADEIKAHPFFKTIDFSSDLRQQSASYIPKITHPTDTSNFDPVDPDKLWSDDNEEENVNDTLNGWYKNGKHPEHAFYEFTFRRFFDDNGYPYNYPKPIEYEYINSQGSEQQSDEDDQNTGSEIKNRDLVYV

Oryctolagus cuniculus [8] = species on record: Oryctolagus cuniculus; experiment: (§1) Induction of tissue regeneration in NZA rabbit with limbal stem cell deficiency transplanted with 10 uM compound treated human limbal stem cells assessed as induction of limbal stem cell population expansion by measuring regeneration of keratin-12-positive corneal epithelium using compound attached to contact lens using GelMA polymerization and delivered into corneal surface; format: functional, organism-based
Oryctolagus cuniculus [9] = species on record: Oryctolagus cuniculus; experiment: as §1, with “human mitochondrial protein expression in” for “measuring regeneration of keratin-12-positive”, “epithelium of transplanted eyes” for “epithelium”; format: functional, organism-based
Mus musculus [10] = experiment: Inhibition of LATS in C57BL/6J mouse assessed as change in CTGF mRNA expression level at 30 mg/kg, po administered as single dose measured after 2 hrs by qRT-PCR analysis relative to control; format: functional
Mus musculus [11] = experiment: Inhibition of LATS in C57BL/6J mouse assessed as change in Cyr61 mRNA expression level at 30 mg/kg, po administered as single dose measured after 2 hrs by qRT-PCR analysis relative to control; format: functional
Mus musculus [12] = experiment: Inhibition of LATS in C57BL/6J mouse assessed as change in Ki67 protein expression level at 30 mg/kg, po administered as single dose measured after 24 hrs by immunohistochemistry analysis relative to control; format: functional
Mus musculus [13] = experiment: Inhibition of LATS in C57BL/6 mouse with full-thickness excisional wounds assessed as up-regulation of YAP target gene Cyr61 expression at 0.2 to 2 mg/ml administered topically by RT-PCR analysis; format: functional, organism-based
Mus musculus [14] = experiment: Induction of basal skin cell proliferation in C57BL/6 mouse at 250 ug administered topically twice per day by micrography; format: functional, organism-based
Mus musculus [15] = experiment: Induction of epidermal thickness in C57BL/6 mouse at 250 ug administered topically twice per day by micrography; format: functional, organism-based
[16] = target: T1, Serine/threonine-protein kinase LATS (Homo sapiens); experiment: Inhibition of LATS in human limbal epithelial cells assessed as increase in YAP level at 10 uM incubated for 24 hrs by immunostaining based assay; details: Epithelial cell
[17] = target: T1, Serine/threonine-protein kinase LATS (Homo sapiens); experiment: Inhibition of LATS in human limbal epithelial cells assessed as reduction in YAP phosphorylation level at 10 uM incubated for 1 hr by Western blot analysis; format: cell-based; details: Epithelial cell
[18] = target: T1, Serine/threonine-protein kinase LATS (Homo sapiens); experiment: Inhibition of LATS in human limbal epithelial cells assessed as induction of limbal stem cell expansion by measuring p63alpha expression at 10 uM measured after 2 weeks by immunohistochemistry; format: cell-based
[19] = target: T1, Serine/threonine-protein kinase LATS (Homo sapiens); experiment: Inhibition of LATS in human limbal epithelial cells assessed as induction of limbal stem cell expansion marker expression by measuring deltaN-p63-alphabetagamma protein expression at 10 uM incubated for 8 to 10 days by immunohistochemistry; format: cell-based
[20] = target: T1, Serine/threonine-protein kinase LATS (Homo sapiens); experiment: Inhibition of LATS in human limbal epithelial cells assessed as induction of limbal stem cell expansion marker expression by measuring ABCG2 protein expression at 10 uM incubated for 8 to 10 days by immunohistochemistry; format: cell-based
[21] = target: T1, Serine/threonine-protein kinase LATS (Homo sapiens); experiment: Inhibition of LATS in human limbal epithelial cells assessed as induction of limbal stem cell expansion marker expression by measuring C/EBPdelta protein expression at 10 uM incubated for 8 to 10 days by immunohistochemistry; format: cell-based
[22] = target: T1, Serine/threonine-protein kinase LATS (Homo sapiens); experiment: Inhibition of LATS in human corneal endothelium cells assessed as increase in YAP level at 10 uM incubated for 24 hrs by immunohistochemistry
[23] = target: T1, Serine/threonine-protein kinase LATS (Homo sapiens); experiment: Inhibition of LATS in human corneal endothelium cells assessed as reduction in YAP phosphorylation at 10 uM incubated for 1 hr by Western blot analysis
[24] = target: T1, Serine/threonine-protein kinase LATS (Homo sapiens); experiment: Inhibition of LATS in human corneal endothelium cells assessed as induction of cell proliferation measured every 3 hrs for 10 days

With `c1cc(-c2nc(NC3CCCC3)c3ccncc3n2)ccn1` the Activity [1] was 57 to 97% and the Activity [2] was 1700 /mm2.

For `CC(C)N(C)c1nc(-c2ccncc2)nc2cnccc12`, the Drug uptake [3] was 415 pg, the Drug uptake [4] was 13.5 to 46.5 nM and the Activity [2] was 3910 /mm2.

Compound `C[C@H](N(C)c1nc(-c2ccncc2)nc2cnccc12)C(F)(F)F` has a Drug uptake [3] of 340 pg, a Drug uptake [5] of 0.75 pg and a Drug uptake [6] of 0.004 to 0.071 nM.

In the case of `CCCNc1nc(-c2ccncc2)nc2cnccc12`, the Activity [1] is reported as 57 to 97% and the Activity [2] is reported as 3270 /mm2.

`c1cc(-c2cc(NC3CCCC3)c3ccncc3n2)ccn1` gave an IC50 [7] of 7 nM.

For `CC(C)(Nc1nc(-c2ccncc2Cl)nc2cnccc12)C(F)(F)F`, the Activity [1] was 57 to 97% and the Activity [2] was 1180 /mm2.

For `CCCNc1nc(-c2c[nH]nc2C(F)(F)F)nc2cnccc12`, the Activity [1] was 57 to 97% and the Activity [2] was 1890 /mm2.

With `CC(C)Nc1nc(-c2ccncc2)nc2cnccc12` the Activity [1] was 57 to 97% and the Activity [2] was 3380 /mm2.

In the case of `CC(C)(O)COCC(C)(C)Nc1nc(-c2ccncc2)nc2cnccc12`, the Activity (Oryctolagus cuniculus [8]) is reported as “Active”, the Activity (Oryctolagus cuniculus [9]) is reported as “Active” and the Drug uptake [3] is reported as 178 pg. It also gave a Drug uptake [4] of 7.32 to 14.4 nM.

With `CC1CCCC1Nc1nc(-c2ccncc2)nc2cnccc12` (stereo not given) the Activity [1] was 57 to 97% and the Activity [2] was 1630 /mm2.

With `c1cc(-c2nc(NCCCc3nnn[nH]3)c3ccncc3n2)ccn1` the “fold change (FC)” value (Mus musculus [10]) was 2.1, the “fold change (FC)” value (Mus musculus [11]) was 3.5 and the “fold change (FC)” value (Mus musculus [12]) was 3.3.

In the case of `Cc1n[nH]cc1-c1nc(NC2(C)CC2)c2ccncc2n1`, the inhibition (Mus musculus [13]) is reported as “Dose-dependent effect”, the Activity (Mus musculus [14]) is reported as “Active” and the Activity (Mus musculus [15]) is reported as “Active”. The inhibition [16] was “Active”, the inhibition [17] was “Active” and the inhibition [18] was “Active”. For the same compound, the Activity [1] was 57 to 97%, the inhibition [19] was “Active” and the inhibition [20] was “Active”. The inhibition [21] was “Active”, the inhibition [22] was “Active” and the inhibition [23] was “Active”. The inhibition [24] was “Active” and the Activity [2] was 2030 /mm2.
